Measurements as given in patent US9511073B2, “Aromatic amides and uses thereof” (TAXIS Pharmaceuticals, Inc., priority 2011, dated 2016).
≈ marks a conversion by molar mass, not a printed value.

System: Staphylococcus aureus (Isolate ID ATCC 29213)
Assay: Bacterial assay: MIC by broth microdilution or agar dilution (CLSI), S. aureus ATCC 29213
Assay type: cell-based
Settings: for MIC: Staphylococcus aureus, ATCC29213, read-out: S. aureus MIC (μg/mL) Activity Range, S. aureus (ATCC29213)
Summary of the method: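 MICs by CLSI broth microdilution or agar dilution against S. aureus ATCC 29213 and its FtsZ-G196A mutant. Values reported as ranges: A ≤0.25 μg/mL, B >0.25–1.0, C >1.0–16, D >16 μg/mL.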

`CCC(Oc1ccc(F)c(C(N)=O)c1F)c1nc(-c2ccc(Cl)cc2)c(Br)o1` (stereo not drawn) [Compound 18, 3-(1-(5-bromo-4-(4-chlorophenyl)oxazol-2-yl)propoxy)-2,6-difluorobenzamide] gave an MIC of 1 to 16 µg/mL (≈ 2.12 to 33.9 µM).

With `Cc1nnc(CNC(=O)OCC(Oc2ccc(F)c(C(N)=O)c2F)c2nc(-c3ccc(C(F)(F)F)cc3)c(Br)o2)o1` (stereo not drawn) [Compound 172, 2-(5-bromo-4-(4-(trifluoromethyl)phenyl)oxazol-2-yl)-2-(3-carbamoyl-2,4-difluorophenoxy)ethyl ((5-methyl-1,3,4-oxadiazol-2-yl)methyl)carbamate] the MIC was 0.25 to 1 µg/mL (≈ 0.387 to 1.55 µM).

`NC(=O)c1c(F)ccc(OC(CNC(=O)c2ccccn2)c2nc(-c3ccc(C(F)(F)F)cc3)c(Br)o2)c1F` (stereo not drawn) [Compound 296, N-(2-(5-bromo-4-(4-(trifluoromethyl)phenyl)oxazol-2-yl)-2-(3-carbamoyl-2,4-difluorophenoxy)ethyl)picolinamide] was tested, and the MIC was < 0.25 µg/mL.

Work on `CN1CCN(C(=O)OCC(Oc2ccc(F)c(C(N)=O)c2F)c2nc(-c3ccc(C(F)(F)F)cc3)c(Br)o2)CC1` (stereo not drawn) [Compound 178, 2-(5-bromo-4-(4-(trifluoromethyl)phenyl)oxazol-2-yl)-2-(3-carbamoyl-2,4-difluorophenoxy)ethyl 4-methylpiperazine-1-carboxylate] yielded an MIC of 0.25 to 1 µg/mL (≈ 0.395 to 1.58 µM).

For `CCOC(=O)CCC(=O)OCC(Oc1ccc(F)c(C(N)=O)c1F)c1nc(-c2ccc(C(F)(F)F)cc2)c(Cl)o1` (stereo not drawn) [Compound 56, 2-(3-carbamoyl-2,4-difluorophenoxy)-2-(5-chloro-4-(4-(trifluoromethyl)phenyl)oxazol-2-yl)ethyl ethyl succinate], the MIC was 0.25 to 1 µg/mL.

In the case of `NC(=O)c1c(F)ccc(OC(CO)c2nc(-c3ccc(C(=O)O)cc3)c(Br)o2)c1F` (stereo not drawn) [Compound 251, 4-(5-bromo-2-(1-(3-carbamoyl-2,4-difluorophenoxy)-2-hydroxyethyl)oxazol-4-yl)benzoic acid], the MIC is reported as > 16 µg/mL.

For `NC(=O)c1c(F)ccc(OC(CC(O)CO)c2nc(-c3ccc(C(F)(F)F)cc3)c(Br)o2)c1F` (stereo not drawn) [Compound 157, 3-(1-(5-bromo-4-(4-(trifluoromethyl)phenyl)oxazol-2-yl)-3,4-dihydroxybutoxy)-2,6-difluorobenzamide], the “S. aureus MIC (μg/mL) Activity Range” value (S. aureus (ATCC29213)) was “B (activity>0.25 μg/mL-1.0 μg/mL)”.

Molecule `CN(Cc1ccncc1)C(=O)OCC(Oc1ccc(F)c(C(N)=O)c1F)c1nc(-c2ccc(C(F)(F)F)cc2)c(Br)o1` (stereo not drawn) [Compound 186, 2-(5-bromo-4-(4-(trifluoromethyl)phenyl)oxazol-2-yl)-2-(3-carbamoyl-2,4-difluorophenoxy)ethyl methyl(pyridin-4-ylmethyl)carbamate] has an MIC of 0.25 to 1 µg/mL (≈ 0.381 to 1.53 µM).

Molecule `CC(Oc1ccc(F)c(C(N)=O)c1F)c1nc(Br)cs1` (stereo not drawn) [Compound 2, 3-(1-(4-bromothiazol-2-yl)ethoxy)-2,6-difluorobenzamide] has an MIC of 1 to 16 µg/mL (≈ 2.75 to 44.1 µM).

Molecule `CC(=O)OCC(Oc1ccc(F)c(C(N)=O)c1F)c1nc(-c2ccc(Cl)cc2)c(Br)o1` (stereo not drawn) [Compound 36] has an MIC of 0.25 to 1 µg/mL (≈ 0.485 to 1.94 µM).

For `NC(=O)c1c(F)ccc(OC(CCCO)c2nc(-c3ccc(C(F)(F)F)cc3)c(Br)o2)c1F` (stereo not drawn) [Compound 90, 3-(1-(5-bromo-4-(4-(trifluoromethyl)phenyl)oxazol-2-yl)-4-hydroxybutoxy)-2,6-difluorobenzamide], the MIC was 0.25 to 1 µg/mL (≈ 0.467 to 1.87 µM).

`NC(=O)c1c(F)ccc(O[C@H](CO)c2nc(-c3ccc4occc4c3)c(Br)o2)c1F` [Compound 254B, (R)-3-(1-(4-(benzofuran-5-yl)-5-bromooxazol-2-yl)-2-hydroxyethoxy)-2,6-difluorobenzamide] gave an MIC of 1 to 16 µg/mL (≈ 2.09 to 33.4 µM).

Work on `Cn1c(CNC(=O)OCC(Oc2ccc(F)c(C(N)=O)c2F)c2nc(-c3ccc(C(F)(F)F)cc3)c(Br)o2)nc2ccccc21` (stereo not drawn) [Compound 210, 2-(5-bromo-4-(4-(trifluoromethyl)phenyl)oxazol-2-yl)-2-(3-carbamoyl-2,4-difluorophenoxy)ethyl ((1-methyl-1H-benzo[d]imidazol-2-yl)methyl)carbamate] yielded an MIC of 0.25 to 1 µg/mL (≈ 0.36 to 1.44 µM).

`CNCCNC(=O)OCC(Oc1ccc(F)c(C(N)=O)c1F)c1nc(-c2ccc(C(F)(F)F)cc2)c(Br)o1` (stereo not drawn) [Compound 154, 2-(5-bromo-4-(4-(trifluoromethyl)phenyl)oxazol-2-yl)-2-(3-carbamoyl-2,4-difluorophenoxy)ethyl (2-(methylamino)ethyl)carbamate] showed an MIC of 1 to 16 µg/mL (≈ 1.65 to 26.3 µM).

For `CC(=O)OCC(Oc1cccc(C(N)=O)c1F)c1nc(-c2ccc(C(F)(F)F)cc2)c(Br)o1` (stereo not drawn) [Compound 158, 2-(5-bromo-4-(4-(trifluoromethyl)phenyl)oxazol-2-yl)-2-(3-carbamoyl-2-fluorophenoxy)ethyl acetate], the MIC was < 0.25 µg/mL.

`COc1ccc(-c2csc(C(CO)Oc3ccc(F)c(C(N)=O)c3F)n2)cc1` (stereo not drawn) [Compound 259, 2,6-difluoro-3-(2-hydroxy-1-(4-(4-methoxyphenyl)thiazol-2-yl)ethoxy)benzamide] showed an MIC of 1 to 16 µg/mL (≈ 2.46 to 39.4 µM).

`NC(=O)c1c(F)ccc(OC(CNC(=O)CCC(=O)O)c2nc(-c3ccc(C(F)(F)F)cc3)c(Br)o2)c1F` (stereo not drawn) [Compound 302, 4-((2-(5-bromo-4-(4-(trifluoromethyl)phenyl)oxazol-2-yl)-2-(3-carbamoyl-2,4-difluorophenoxy)ethyl)amino)-4-oxobutanoic acid] was tested, and the MIC was 1 to 16 µg/mL (≈ 1.65 to 26.4 µM).

With `CC(=O)OCCC(Oc1ccc(F)c(C(N)=O)c1F)c1nc(-c2ccc(C(F)(F)F)cc2)c(Br)o1` (stereo not drawn) [Compound 72, 3-(5-bromo-4-(4-(trifluoromethyl)phenyl)oxazol-2-yl)-3-(3-carbamoyl-2,4-difluorophenoxy)propyl acetate] the MIC was 1 to 16 µg/mL.

With `NCCNC(=O)OCC(Oc1ccc(F)c(C(N)=O)c1F)c1nc(-c2ccc(C(F)(F)F)cc2)c(Br)o1` (stereo not drawn) [Compound 152, 2-(5-bromo-4-(4-(trifluoromethyl)phenyl)oxazol-2-yl)-2-(3-carbamoyl-2,4-difluorophenoxy)ethyl (2-aminoethyl)carbamate] the MIC was 1 to 16 µg/mL (≈ 1.69 to 27 µM).

For `Cc1cc(CNC(=O)OCC(Oc2ccc(F)c(C(N)=O)c2F)c2nc(-c3ccc(C(F)(F)F)cc3)c(Br)o2)nn1C` (stereo not drawn) [Compound 213, 2-(5-bromo-4-(4-(trifluoromethyl)phenyl)oxazol-2-yl)-2-(3-carbamoyl-2,4-difluorophenoxy)ethyl ((1,5-dimethyl-1H-pyrazol-3-yl)methyl)carbamate], the MIC was 0.25 to 1 µg/mL (≈ 0.38 to 1.52 µM).

`Cn1ccc(CNC(=O)OCC(Oc2ccc(F)c(C(N)=O)c2F)c2nc(-c3ccc(C(F)(F)F)cc3)c(Br)o2)n1` (stereo not drawn) [Compound 193, 2-(5-bromo-4-(4-(trifluoromethyl)phenyl)oxazol-2-yl)-2-(3-carbamoyl-2,4-difluorophenoxy)ethyl ((1-methyl-1H-pyrazol-3-yl)methyl)carbamate] was tested, and the MIC was < 0.25 µg/mL.

Molecule `CC(=O)OCC(Oc1ccc(F)c(C(N)=O)c1F)c1nc(-c2ccc(C(F)(F)F)cc2)c(Br)o1` (stereo not drawn) [Compound 37, 2-(5-bromo-4-(4-(trifluoromethyl)phenyl)oxazol-2-yl)-2-(3-carbamoyl-2,4-difluorophenoxy)ethyl acetate] has an MIC of 0.25 to 1 µg/mL.

Molecule `Cn1cnc(CNC(=O)OCC(Oc2ccc(F)c(C(N)=O)c2F)c2nc(-c3ccc(C(F)(F)F)cc3)c(Br)o2)c1` (stereo not drawn) [Compound 203, 2-(5-bromo-4-(4-(trifluoromethyl)phenyl)oxazol-2-yl)-2-(3-carbamoyl-2,4-difluorophenoxy)ethyl ((1-methyl-1H-imidazol-4-yl)methyl)carbamate] has an MIC of 0.25 to 1 µg/mL (≈ 0.388 to 1.55 µM).

Molecule `NC(=O)c1c(F)ccc(OC(COCCO)c2nc(-c3ccc(C(F)(F)F)cc3)c(Br)o2)c1F` (stereo not drawn) [Compound 150, 3-(1-(5-bromo-4-(4-(trifluoromethyl)phenyl)oxazol-2-yl)-2-(2-hydroxyethoxy)ethoxy)-2,6-difluorobenzamide] has an MIC of 0.25 to 1 µg/mL (≈ 0.454 to 1.81 µM).

For `COc1cc(Cl)ccc1-c1coc(C(CO)Oc2ccc(F)c(C(N)=O)c2F)n1` (stereo not drawn) [Compound 227, 3-(1-(4-(4-chloro-2-methoxyphenyl)oxazol-2-yl)-2-hydroxyethoxy)-2,6-difluorobenzamide], the MIC was > 16 µg/mL.

With `COc1ncc(-c2nc(C(C)Oc3ccc(F)c(C(N)=O)c3F)sc2Cl)s1` (stereo not drawn) [Compound 35] the MIC was < 0.25 µg/mL.

In the case of `CNC(=O)C(Oc1ccc(F)c(C(N)=O)c1F)c1nc(-c2ccc(Cl)cc2)c(Cl)o1` (stereo not drawn) [Compound 49, 3-(1-(5-chloro-4-(4-chlorophenyl)oxazol-2-yl)-2-(methylamino)-2-oxoethoxy)-2,6-difluorobenzamide], the MIC is reported as 1 to 16 µg/mL (≈ 2.19 to 35.1 µM).

For `Cc1c(CNC(=O)OCC(Oc2ccc(F)c(C(N)=O)c2F)c2nc(-c3ccc(C(F)(F)F)cc3)c(Br)o2)cnn1C` (stereo not drawn) [Compound 205, 2-(5-bromo-4-(4-(trifluoromethyl)phenyl)oxazol-2-yl)-2-(3-carbamoyl-2,4-difluorophenoxy)ethyl ((1,5-dimethyl-1H-pyrazol-4-yl)methyl)carbamate], the MIC was 0.25 to 1 µg/mL (≈ 0.38 to 1.52 µM).

`NC(=O)c1c(F)ccc(OC(COC(=O)NCc2cccc[n+]2[O-])c2nc(-c3ccc(C(F)(F)F)cc3)c(Br)o2)c1F` (stereo not drawn) [Compound 173, 2-((((2-(5-bromo-4-(4-(trifluoromethyl)phenyl)oxazol-2-yl)-2-(3-carbamoyl-2,4-difluorophenoxy)ethoxy)carbonyl)amino)methyl)pyridine 1-oxide] showed an MIC of 0.25 to 1 µg/mL (≈ 0.38 to 1.52 µM).

In the case of `CC(=O)OCC(Oc1ccc(F)c(C(N)=O)c1F)c1nc(-c2ccc(OC(F)(F)F)cc2)c(Br)o1` (stereo not drawn) [Compound 115, 2-(5-bromo-4-(4-(trifluoromethoxy)phenyl)oxazol-2-yl)-2-(3-carbamoyl-2,4-difluorophenoxy)ethyl acetate], the MIC is reported as < 0.25 µg/mL.

With `CS(=O)(=O)c1ccc(-c2nc(C(CO)Oc3ccc(F)c(C(N)=O)c3F)oc2Br)cc1` (stereo not drawn) [Compound 145, 3-(1-(5-bromo-4-(4-(methylsulfonyl)phenyl)oxazol-2-yl)-2-hydroxyethoxy)-2,6-difluorobenzamide] the MIC was > 16 µg/mL.

Molecule `CC(=O)OCC(Oc1ccc(F)c(C(N)=O)c1F)c1nc(-c2ccc(Cl)cc2)c(Cl)o1` (stereo not drawn) [Compound 46, 2-(3-carbamoyl-2,4-difluorophenoxy)-2-(5-chloro-4-(4-chlorophenyl)oxazol-2-yl)ethyl acetate] has an MIC of 0.25 to 1 µg/mL.

For `Cc1ccc(-c2csc(C(CO)Oc3ccc(F)c(C(N)=O)c3F)n2)cn1` (stereo not drawn) [Compound 264, 2,6-difluoro-3-(2-hydroxy-1-(4-(6-methylpyridin-3-yl)thiazol-2-yl)ethoxy)benzamide], the MIC was > 16 µg/mL.
